Assay in all cases: NCI tumour cell line growth inhibition, 48 h
In assay [1] the test system is NCI-H226 lung.
Assay [2] has as its system DMS 273 small cell lung.
Assay [3] has as its system HL-60(TB) leukemia.
The subject of assay [4] is DLD-1 colon.
Assay [5] relates to IGROV1 ovarian.
Assay [6] relates to KM20L2 colon.
The subject of assay [7] is SNB-19 CNS.
Assay [8] concerns COLO 205 colon.
The test system of assay [9] is MOLT-4 leukemia.
For assay [10], the system named is LXFL 529 NSCLC.
Assay [11] concerns M19-MEL melanoma.
The test system of assay [12] is BT-549 breast.
Assay [13] relates to PC-3 prostate.

“And” between values parts separate entries of the source, which are not always exact repeats. Identical values can stand only once.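 Cultured in 96-well plates, cells were exposed to test compound for 48 hours across five concentrations. The concentration for 50% growth inhibition is given as GI50. Definition used: TGI = concentration required for complete inhibition of growth.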

Turning to `O=c1ccn([C@@H]2C=C(CO)[C@@H](O)[C@H]2O)c(=O)[nH]1`, the TGI in assay [1], in assay [2], in [3], in [4], in [5] and in [6] was more than 625 µM throughout. Also, the TGI in [7] and in assay [8] was more than 625 µM each time.

Take `O=C(/C=C/CC(O)(c1ccccc1)c1ccccc1)Nc1ccccc1Cl`: the TGI in assay [9], in assay [1], in assay [10], in [3], in assay [4] and in [11] was more than 100 µM each time. The TGI in assay [6], in assay [7] and in assay [8] was more than 100 µM each time.

Consider `O=C(CCl)Nc1ccc(C(=O)N/N=C/c2ccc(Cl)cc2)cc1`, for which the GI50 was 2.44 µM in [9]; 1.19 µM in assay [3]; 1.85 µM in [5]; 10.1 µM in assay [13]; 3.09 µM in assay [7]; 2.01 µM in assay [8]. For the same molecule, the TGI in assay [9] was 6.28 µM and 5.35 µM; in assay [1], 35.3 µM; in [10], 3.2 µM; in assay [2], 4.12 µM; in [3], 6.51 µM and 3.77 µM; in assay [4] it was 4.93 µM. The TGI was 3.86 µM and 2.34 µM in assay [5]; 3.53 µM and 4.11 µM in assay [12]; 25.6 µM in assay [11]; 3.53 µM and 21.9 µM in assay [13]; 27.4 µM in assay [6]; 5.74 µM and 20.1 µM in assay [7]. Besides, the TGI in assay [8] is 4.05 µM and 1.44 µM.

Consider `COC(=O)Cc1c2n(c3ccccc13)C(=O)N1c3ccccc3C(CC(=O)OC)C21` (configuration not stated), for which the TGI in assay [9] is more than 100 µM; in [1], more than 100 µM; in assay [3], more than 100 µM; in [5] it was 71.6 µM; in assay [12] it was 93.9 µM; in assay [13], more than 100 µM. For the same molecule, the TGI was 49.8 µM in [7] and more than 100 µM in assay [8].

Take `O=C(O)CCSc1ncnc2nc[nH]c12`: the TGI in assay [9], in assay [1], in assay [3], in assay [5], in assay [12] and in [13] was more than 100 µM throughout. Moreover, the TGI in assay [7] and in assay [8] was more than 100 µM each time.

In the case of `CCCCCc1cc(CCCC)sc1-c1ccco1`, the TGI is more than 100 µM in assay [9]; more than 100 µM in assay [1]; 58.8 µM in assay [3]; more than 100 µM in assay [5]; more than 100 µM in [12]; more than 100 µM in assay [13]. Also, the TGI in assay [7] and in assay [8] was more than 100 µM each time.

In the case of `C[N+]1(CCCCN2c3ccccc3Sc3cc(N=[N+]=[N-])ccc32)CCN(C(=O)CCNC(=O)Cc2ccc(C(=O)c3ccccc3)cc2)CC1`, the TGI in assay [9] is more than 76.8 µM; in [1] it was more than 85.7 µM; in assay [3] it was 35.5 µM; in [5] it was more than 77.6 µM; in [12] it was more than 71.4 µM; in [13], 40.7 µM. In addition, the TGI worked out at 66.7 µM in assay [7] and 34.9 µM in [8].

For the molecule `COc1cc2c3cc1Oc1cc(ccc1O)C[C@@H]1c4c(cc(OC)c(O)c4Oc4ccc(cc4)C[C@@H]3[N+](C)(C)CC2)CC[N+]1(C)C`, the TGI in assay [9], in assay [1], in assay [3], in assay [5], in assay [12] and in assay [13] was more than 100 µM each time. Also, the TGI in assay [7] and in [8] was more than 100 µM in each case.

For the molecule `COc1ccccc1Cn1c2c(c3cc(O)ccc31)C(=O)c1ccccc1C2=O`, the TGI is more than 100 µM in [9]; 79 µM in [1]; more than 100 µM in assay [3]; more than 100 µM in assay [5]; more than 100 µM in assay [12]; 53.5 µM in [13]. The TGI in assay [7] and in assay [8] was more than 100 µM in each case.

For the molecule `O=C1c2cccnc2C(=O)c2c1nc1ccccc1c2-c1ccc2c3c(nc4ccccc42)C(=O)c2cccnc2-c13`, the TGI turned out to be 5.66 µM in assay [9]; 7.55 µM in assay [1]; 5.42 µM in assay [3]; 1.39 µM in assay [5]; 12.7 µM in assay [12]; 37.2 µM in [13]. In addition, the figures for the TGI in assay [7] and in assay [8] were 7.92 µM and 5.68 µM, respectively.

Consider `OC(CCN1CCN(CCOC(c2ccc(F)cc2)c2ccc(F)cc2)CC1)c1ccc(Br)cc1` (configuration not stated), for which the TGI in assay [9] turned out to be 7.73 µM; in [1] it was 21.9 µM; in assay [3] it was 11.2 µM; in [5], 16.1 µM; in assay [12], 12.5 µM; in assay [13], 17.8 µM. The TGI came out at 21.2 µM in [7] and 3.84 µM in assay [8].

Turning to `Cc1nn(C(=O)c2ccccc2O)c2c1C(c1ccc([N+](=O)[O-])cc1)SC(N)=N2` (configuration not stated), the TGI in [9] was more than 10 µM; in assay [1], more than 9.22 µM; in assay [3], more than 10 µM; in [5] it was more than 10 µM; in assay [12], more than 10 µM; in assay [13] it was more than 10 µM. The TGI in assay [7] and in [8] was more than 10 µM throughout.

In the case of `C=CCN(c1cc(OC)c2[nH]c(C(=O)O)c(C)c2c1[N+](=O)[O-])S(C)(=O)=O`, the TGI in [9], in assay [1], in assay [3], in [5], in assay [12] and in assay [13] was more than 100 µM throughout. The TGI in assay [7] and in assay [8] was more than 100 µM in each case.

With `CN(C)C(=O)/N=C1\SC(=Nc2ccccc2)C(=Nc2ccccc2)N1c1ccc([N+](=O)[O-])cc1`, the TGI in [9], in assay [1], in assay [3], in [5], in assay [12] and in assay [13] was more than 100 µM throughout. The TGI in assay [7] and in [8] was more than 100 µM throughout.

For the molecule `COc1ccc(C(=C2C(=O)OC(=O)C2=C(C)C)c2ccc(OC)cc2)cc1`, the TGI was more than 100 µM in assay [9]; more than 100 µM in [1]; 84.3 µM in [3]; more than 100 µM in assay [5]; more than 100 µM in assay [12]; more than 100 µM in assay [13]. The TGI in assay [7] and in assay [8] was more than 100 µM in each case.

Consider `CSc1ncnc2c1cnn2Cc1cn(COCC(O)CO)nn1` (configuration not stated), for which the TGI in assay [9], in assay [1], in assay [3], in [5], in assay [12] and in assay [13] was more than 100 µM in each case. Further, the TGI in [7] and in assay [8] was more than 100 µM throughout.

As for `O=C1C=CC(=O)c2c(O)c(N3CCN(c4ncccn4)CC3)c(Cl)c(O)c21`, the TGI in [9] was determined as 5.5 µM; in assay [1] it was 44.8 µM; in assay [3] it was 0.766 µM; in [5], 3.43 µM; in [12] it was 3.86 µM; in [13] it was 8.88 µM. Further, the TGI was 18 µM in assay [7] and 3.36 µM in [8].

Consider `Brc1ccc(/C(N=N/C(=N\Sc2ccccc2)c2ccc(Br)cc2)=N/Sc2ccccc2)cc1`, for which the TGI in assay [9], in assay [1], in assay [3], in [5], in assay [12] and in assay [13] was more than 100 µM in each case. The TGI in [7] and in [8] was more than 100 µM throughout.

Take `CCc1nc2c([nH]1)C(=O)c1ccccc1C2=O`: the TGI was more than 100 µM in [9]; more than 100 µM in assay [1]; more than 100 µM in assay [2]; 94.7 µM in [3]; more than 100 µM in assay [4]; 31.8 µM in [11]. The molecule further returned a TGI in assay [7] of more than 100 µM.

With `Cc1ccc(S(=O)(=O)N2CCc3cc(O)c([N+](=O)[O-])cc32)cc1`, the TGI in [9], in assay [1], in assay [3], in [5], in assay [12] and in [13] was more than 100 µM in each case. For the same molecule, the TGI in assay [7] and in assay [8] was more than 100 µM in each case.

For the molecule `CC(=O)Nc1ccc2c(c1)nc1c3ccccc3ccn21`, the TGI in assay [9], in assay [1], in [3], in assay [5], in [12] and in assay [13] was more than 100 µM throughout. Further, the TGI in [7] and in [8] was more than 100 µM in each case.

`O=C1CN(c2ccccc2)C(=O)C1C(=O)Nc1ccc(Cl)c(Cl)c1` (configuration not stated): the TGI in assay [9] was determined as 11.7 µM; in assay [10], 14.3 µM; in [2], 15.1 µM; in [3] it was 9.66 µM; in assay [4], 23 µM; in [5], 14.9 µM. Also, the TGI in [11] stood at 14.8 µM; in assay [6] it was 16.8 µM; in assay [7], 17.2 µM; in assay [8], 20.4 µM.

For `COC(=O)[C@@H]1[C@H]2CC[C@]3(C)[C@@H](OC(C)=O)CC[C@H]3[C@@H]2CC[C@H]1C1(C)SCCS1`, the TGI in [9] is 59.3 µM; in [1], 42.3 µM; in assay [3], 36.8 µM; in [5], more than 100 µM; in assay [12] it was 46.2 µM; in [13], 86 µM. For the same molecule, the TGI in [7] is more than 100 µM; in [8], 29.3 µM.

These data come from PubChem BioAssay (NCI).
